Results: patent publication US20050209157A1, “Short bioactive peptides and methods for their use” (priority 2001, published 2005)
Where “and” joins values, the source holds several entries; their conditions need not be identical. Equal values may be shown once. Read-outs that look alike come from different tables or passages of the source. No end group written: not given here.

Tests used:
S. aureus (MRSA) = assay type: cell-based, Staphylococcus aureus; conditions: Table 13, strain SAP0017; in µg/mL
S. epidermidis C621 = assay type: cell-based, Staphylococcus epidermidis; conditions: Table 13; in µg/mL
E. coli UB1005 = assay type: cell-based, Escherichia coli; conditions: Table 12
S. typhimurium 14028S = assay type: cell-based, Salmonella typhimurium; conditions: Table 12
P. aeruginosa H374 = assay type: cell-based, Pseudomonas aeruginosa; conditions: in µg/mL
[1] = test system: Pseudomonas aeruginosa H187; assay type: cell-based; conditions: in µg/mL
[2] = test system: Pseudomonas aeruginosa 100609; assay type: cell-based; conditions: Table 9; in µg/mL
[3] = test system: Pseudomonas aeruginosa 105663; assay type: cell-based; conditions: Table 9; in µg/mL
Candida albicans 105 = assay type: cell-based; conditions: Table 13; in µg/mL
[4] = test system: Candida glabrata ATCC15126; experiment: Antimicrobial assays II, NCCLS broth microdilution MIC; assay type: cell-based; conditions: in µg/mL

Row | Substance | MIC S. aureus SAP0017 (S. aureus (MRSA)) | MIC S. epidermis C621 (S. epidermidis C621) | MIC E. coli UB1005 (E. coli UB1005) | MIC S. typhimurium 14028S (S. typhimurium 14028S) | MIC P. aeruginosa H374 (P. aeruginosa H374; Table 9) | MIC P. aeruginosa H374 (P. aeruginosa H374; Table 12) | MIC P. aeruginosa H187 ([1]; Table 9) | MIC P. aeruginosa H187 ([1]; Table 12) | MIC P. aeruginosa Tb 100609 [2] | MIC P. aeruginosa Tb 105663 [3] | MIC C. albicans 105 (Candida albicans 105) | MIC C. glabrata ATCC15126 ([4]; Table 13) | MIC P. aeruginosa H187 ([1]; Table 8) | MIC C. glabrata ATCC15126 ([4]; Table 8)
1 | FAKLLAKALKKLL-NH2 [P55 (35)] | 4 | 2 | 4 µg/mL | 4 µg/mL | 8 | 8 | 8 | 8 | 8 | 16 | 16 | 8 |  | 
2 | VALALKALKKLLKKLKKLAKKAL-NH2 [P510 (161)] | 8 | 4 | 8 µg/mL | 16 µg/mL | 8 | 8 | 8 | 8 | 16 | 16 | 32 | 64 |  | 
3 | FAKKLKKLAKLAKKL-NH2 [P46 (28)] |  |  |  |  | 4 |  | 16 |  | 16 | 32 |  |  | 8 and 16 | 32
4 | FAKLLALALKKAL-NH2 [P97 (165)] | 8 | 4 | 8 µg/mL | 16 µg/mL | 8 | 8 | 16 | 16 | 16 | 16 | 16 | 16 |  | 
5 | FAKFLAKFLKKAL-NH2 [P111 (75)] | 8 | 4 | 16 µg/mL | 16 µg/mL | 8 | 8 | 8 | 8 | 16 | 32 | 32 | 32 |  | 
6 | FALALKALKKALKKLKKALKKAL-NH2 [P2 (2)] |  |  |  |  | 16 |  | 16 |  | 32 | 16 |  |  |  | 
7 | FAKKLAKLAKKALAL-NH2 [P39 (21)] |  |  |  |  | 16 |  | 32 |  | 32 | 32 |  |  | 32 | 16
